Where a name gives a salt, the structure may show the parent alone. Read-outs that look alike come from different tables or passages of the source.
How the values were obtained:
[1] = test system: cerebrovascular resistance; assay: cerebrovascular resistance on the rabbit (Hutten and Vaupel), decrease in vascular resistance after arterial application; format: in vivo; settings: for inhibition in vivo at 1 %: Oryctolagus cuniculus, read-out: ΔR % (relative decrease in vascular resistance)
Description: The therapeutic effect is expressed in terms of decrease in vascular resistance.
For this purpose 0.1 ml of a 1% solution of the test substance, i.e., according to the invention, was administered to the rabbit by arterial application. The decrease in vascular resistance (R) and the relative decrease in vascular resistance (ΔR%) were recorded and expressed in mm Hg min/l or in the valid S.I. unit k Pa min/ml, i.e., absolute decrease of resistance x time.
The activity of this compound was tested by means of the aforementioned method.

in vivo [2] = assay: in vivo
Description: The calculation of the therapeutic indices was based on the

in vivo [3] = assay: in vivo; remark: listed apart in the source
[4] = acute toxicity after oral application, LD50; settings: in vivo
Description: The therapeutic range of the substances according to the invention can again be described as excellent, since the LD50 values lie in a favorable range, as is shown by the results of acute toxicity tests on the mouse after oral application.

[5] = Table 2; mean effective dose
[6] = Table 1, rabbit, 0.1 ml of a 1% solution, arterial application
[7] = Table 4, rabbit, 0.1 ml of a 1% solution, arterial application
[8] = mouse, po, read-out: Acute toxicity LD50, 24 h
[9] = mouse, po, read-out: Acute toxicity LD50, 14 days
[10] = Table 3, mouse oral, 24 h, read-out: Acute toxicities LD50, 24 h
[11] = Table 3, mouse oral, 14 days, read-out: Acute toxicities LD50, 14 days

| SMILES | inhibition in vivo at 1 % [1, 6] | Absolute decrease of vascular resistance R [1, 6] | LD50 (in vivo [2]; iv) | selectivity ratio (in vivo [3]; iv) | LD50 at 24 h [4, 10] | LD50 at 336 h [4, 11] | ED50 [5] | other results |
| --- | --- | --- | --- | --- | --- | --- | --- | --- |
| C(=C\c1ccccc1)/CN1CCN(C(c2ccccc2)c2ccccc2)CC1 [Cinnarizine, reference compound] | 19.3% | 2,9 mm Hg min/l |  |  |  |  |  | Absolute decrease in vascular resistance R [1, 7]: 2.9 mm Hg min/l |
| COc1cc(CN2CCN(c3ccc(C)c(C)c3)CC2)cc(OC)c1OC [Example 1] |  |  |  |  |  |  |  | LD50 (in vivo [2]): 260 mg/kg; selectivity ratio (in vivo [3]): 13000; LD50 at 24 h [4, 8]: 348 mg/kg; LD50 at 336 h [4, 9]: 263 mg/kg; inhibition in vivo at 1 % [1, 7]: 24.3% |
| COc1cc(CN2CCN(c3ccc(Cl)c(C(F)(F)F)c3)CC2)cc(OC)c1OC [Example 2] |  |  |  |  |  |  |  | LD50 (in vivo [2]): 283 mg/kg; selectivity ratio (in vivo [3]): 3150; LD50 at 24 h [4, 8]: 328 mg/kg; LD50 at 336 h [4, 9]: 283 mg/kg; inhibition in vivo at 1 % [1, 7]: 26.3% |
| COc1cc(CN2CCN(c3ccc4c(c3)OCO4)CC2)cc(OC)c1OC [Example 3] |  |  |  |  |  |  |  | LD50 (in vivo [2]): 297 mg/kg; selectivity ratio (in vivo [3]): 2700; LD50 at 24 h [4, 8]: 312 mg/kg; LD50 at 336 h [4, 9]: 296 mg/kg; inhibition in vivo at 1 % [1, 7]: 22% |
| COc1cc(CN2CCN(c3cc(OC)c(OC)c(OC)c3)CC2)cc(OC)c1OC [Example 4] |  |  |  |  |  |  |  | LD50 (in vivo [2]): 350 mg/kg; selectivity ratio (in vivo [3]): 7000; LD50 at 24 h [4, 8]: 348 mg/kg; LD50 at 336 h [4, 9]: 348 mg/kg; inhibition in vivo at 1 % [1, 7]: 21.5% |
| COc1cc(CN2CCN(c3cc(C(F)(F)F)cc(C(F)(F)F)c3)CC2)cc(OC)c1OC [Example 5] |  |  |  |  |  |  |  | LD50 (in vivo [2]): 280 mg/kg; selectivity ratio (in vivo [3]): 5600; LD50 at 24 h [4, 8]: 300 mg/kg; LD50 at 336 h [4, 9]: 280 mg/kg; inhibition in vivo at 1 % [1, 7]: 20.6% |
| COc1cc(CN2CCN(c3c(C)cccc3C)CC2)cc(OC)c1OC [Example 6] |  |  |  |  |  |  |  | LD50 (in vivo [2]): 265 mg/kg; selectivity ratio (in vivo [3]): 3800; LD50 at 24 h [4, 8]: 348 mg/kg; LD50 at 336 h [4, 9]: 265 mg/kg; inhibition in vivo at 1 % [1, 7]: 23% |
| COc1cc(CN2CCN(c3ccccc3)CC2)cc(OC)c1OC.Cl [Example 21, N-(3,4,5-trimethoxy-benzyl)-N'-phenyl-piperazine hydrochloride] |  |  |  |  |  |  |  | LD50 at 24 h ([4]; mouse, oral, 24 hours, read-out: oral acute toxicity (LD50) after 24 hours): 320 mg/kg; LD50 at 336 h ([4]; mouse, oral, fourteen days, read-out: oral acute toxicity (LD50) after fourteen days): 265 mg/kg; Absolute decrease of vascular resistance R ([1]; Hutten and Vaupel rabbit test): 3.0 mm. Hg. min/l; circulation stimulant activity (in words) ([1]; Hutten and Vaupel rabbit test): circulation stimulant; decrease of vascular resistance (ΔR %) ([1]; Hutten and Vaupel rabbit test): 23.2% |
| COc1cccc(N2CCN(Cc3cc(OC)c(OC)c(OC)c3)CC2)c1.Cl [m. Methoxy-, N-(3,4,5-trimethoxy-benzyl)-N'-(3-methoxyphenyl)-piperazine hydrochloride] | 28.5% | 3,0 mm Hg min/l | 850 mg/kg | 2010 | 411 mg/kg | 285 mg/kg | 0,42 mg/kg |  |
| COc1cc(CN2CCN(c3cccc(C)c3)CC2)cc(OC)c1OC.Cl [m. Methyl-, N-(3,4,5-trimethoxy-benzyl)-N'-(3-methylphenyl)-piperazine hydrochloride] | 22% | 3,2 mm Hg min/l | 700 mg/kg | 1520 | 452 mg/kg | 310 mg/kg | 0,46 mg/kg |  |
| COc1cc(CN2CCN(c3ccccc3Cl)CC2)cc(OC)c1OC.Cl.Cl [o. Chloro-, N-(3,4,5-trimethoxy-benzyl)-N'-(2-chlorophenyl)-piperazine dihydrochloride] | 27.9% | 3,0 mm Hg min/l | 810 mg/kg | 2130 | 295 mg/kg | 255 mg/kg | 0,38 mg/kg |  |
| CCOc1ccccc1N1CCN(Cc2cc(OC)c(OC)c(OC)c2)CC1.Cl.Cl [o. Ethoxy-, N-(3,4,5-trimethoxy-benzyl)-N'-(2-ethoxyphenyl)-piperazine dihydrochloride] | 20.4% | 2,85 mm Hg min/l | 900 mg/kg | 1990 | 411 mg/kg | 266 mg/kg | 0,45 mg/kg |  |
| CCc1ccccc1N1CCN(Cc2cc(OC)c(OC)c(OC)c2)CC1.Cl.Cl [o. Ethyl-, N-(3,4,5-trimethoxy-benzyl)-N'-(2-ethylphenyl)-piperazine dihydrochloride] | 21.7% | 3,0 mm Hg min/l | 900 mg/kg | 2240 | 456 mg/kg | 311 mg/kg | 0,40 mg/kg |  |
| COc1cc(CN2CCN(c3ccccc3F)CC2)cc(OC)c1OC.Cl [o. Fluoro-, N-(3,4,5-trimethoxy-benzyl)-N'-(2-fluorophenyl)-piperazine hydrochloride] | 23% | 3,0 mm Hg min/l | 920 mg/kg | 2280 |  |  | 0,40 mg/kg |  |
| COc1ccccc1N1CCN(Cc2cc(OC)c(OC)c(OC)c2)CC1.Cl.Cl [o. Methoxy-, N-(3,4,5-trimethoxy-benzyl)-N'-(2-methoxyphenyl)-piperazine dihydrochloride] | 22.2% | 2,94 mm Hg min/l | 1150 mg/kg | 2750 |  |  | 0,42 mg/kg |  |
| COc1cc(CN2CCN(c3ccccc3C)CC2)cc(OC)c1OC [o. Methyl-, N-(3,4,5-trimethoxybenzyl)-N'-(2-methylphenyl)-piperazine] | 24.5% | 3,3 mm Hg min/l | 700 mg/kg | 1450 | 457 mg/kg | 311 mg/kg | 0,48 mg/kg |  |
| COc1cc(CN2CCN(c3ccccc3[N+](=O)[O-])CC2)cc(OC)c1OC.Cl [o. Nitro-, N-(3,4,5-trimethoxy-benzyl)-N'-(2-nitrophenyl)-piperazine hydrochloride] | 20.6% | 3,1 mm Hg min/l | 650 mg/kg | 1300 | 274 mg/kg | 201 mg/kg | 0,50 mg/kg |  |
| COc1cc(CN2CCN(c3ccc(F)cc3)CC2)cc(OC)c1OC.Cl [p. Fluoro-, N-(3,4,5-trimethoxy-benzyl)-N'-(4-fluorophenyl)-piperazine hydrochloride] | 26.4% | 4,6 mm Hg min/l | 580 mg/kg | 1570 | 350 mg/kg | 275 mg/kg | 0,37 mg/kg |  |
| COc1cc(CN2CCN(c3ccc(O)cc3)CC2)cc(OC)c1OC.Cl [p. Hydroxy-, N-(3,4,5-trimethoxy-benzyl)-N'-(4-hydroxyphenyl)-piperazine hydrochloride] | 19.5% | 2,8 mm Hg min/l | 1260 mg/kg | 2800 | 306 mg/kg | 245 mg/kg | 0,45 mg/kg |  |
| COc1ccc(N2CCN(Cc3cc(OC)c(OC)c(OC)c3)CC2)cc1.Cl.Cl [p. Methoxy-, N-(3,4,5-trimethoxy-benzyl)-N'-(4-methoxyphenyl)-piperazine dihydrochloride] |  | 3,90 mm Hg min/l | 910 mg/kg | 3050 |  |  | 0,30 mg/kg | inhibition in vivo at 1 % [1]: 27.8% |
| COc1cc(CN2CCN(c3ccc(C)cc3)CC2)cc(OC)c1OC [p. Methyl-, hydrochloride] | 23% | 3,3 mm Hg min/l | 720 mg/kg | 1630 | 459 mg/kg | 312 mg/kg | 0,44 mg/kg |  |
